{"source": "ChEMBL document CHEMBL1127059", "about": "“Synthesis and antiviral activity of 5'-deoxypyrazofurin” (J Med Chem, 1993)", "key": {"MT4 [1]": {"tested_on": "MT4", "test": "cells", "conditions": "Homo sapiens"}, "HEL [2]": {"tested_on": "HEL", "type": "functional, cell-based", "conditions": "Homo sapiens"}, "HEL [3]": {"tested_on": "HEL", "test": "Tested for inhibitory effect on DNA virus CMV (Davis) in HEL cell line", "type": "functional, cell-based", "conditions": "Homo sapiens"}, "MDCK [4]": {"tested_on": "MDCK", "test": "Tested for inhibitory effect on RNA virus Influenza A in MDCK cell line", "type": "functional, cell-based", "conditions": "Canis lupus familiaris"}, "CCRF-CEM": {"tested_on": "CCRF-CEM", "type": "functional, cell-based", "conditions": "Homo sapiens"}, "ESM [5]": {"tested_on": "ESM", "test": "Tested for inhibitory effect on DNA virus HSV-2 (G) in ESM cell line", "type": "functional, cell-based", "conditions": "Homo sapiens"}, "HeLa [6]": {"tested_on": "HeLa", "test": "Tested for inhibitory effect on RNA virus Polio-1 in HeLa cell line", "type": "functional, cell-based", "conditions": "Homo sapiens"}, "ESM [7]": {"tested_on": "ESM", "type": "functional, cell-based", "conditions": "Homo sapiens"}, "Vero [8]": {"tested_on": "Vero", "test": "Tested for inhibitory effect on RNA virus Coxsackie B4 in Vero cell line", "type": "functional, cell-based", "conditions": "Chlorocebus sabaeus"}, "HeLa [9]": {"tested_on": "HeLa", "test": "Tested for inhibitory effect on RNA virus RSV in HeLa cell line", "type": "functional, cell-based", "conditions": "Homo sapiens"}, "HeLa [10]": {"tested_on": "HeLa", "test": "Tested for inhibitory effect on RNA virus VSV in HeLa cell line", "type": "functional, cell-based", "conditions": "Homo sapiens"}, "Vero [11]": {"tested_on": "Vero", "test": "Tested for inhibitory effect on RNA virus JV in Vero cell line", "type": "functional, cell-based", "conditions": "Chlorocebus sabaeus"}, "MT4 [12]": {"tested_on": "MT4", "test": "Tested for inhibitory effect on RNA virus HIV-2 in MT-4 cell line", "type": "functional, cell-based", "conditions": "Homo sapiens"}, "Vero [13]": {"tested_on": "Vero", "test": "Tested for inhibitory effect on RNA virus PV-3 in Vero cell line", "type": "functional, cell-based", "conditions": "Chlorocebus sabaeus"}, "MDCK [14]": {"tested_on": "MDCK", "type": "functional, cell-based", "conditions": "Canis lupus familiaris"}, "ESM [15]": {"tested_on": "ESM", "test": "Tested for inhibitory effect on DNA virus TK-HSV-1(VMW 1837) in ESM cell line", "type": "functional, cell-based", "conditions": "Homo sapiens"}, "MT4 [16]": {"tested_on": "MT4", "test": "Tested for inhibitory effect on RNA virus HIV-1 in MT-4 cell line", "type": "functional, cell-based", "conditions": "Homo sapiens"}, "ESM [17]": {"tested_on": "ESM", "test": "Tested for inhibitory effect on DNA virus HSV-1(KOS) in ESM cell line", "type": "functional, cell-based", "conditions": "Homo sapiens"}, "HeLa [18]": {"tested_on": "HeLa", "type": "functional, cell-based", "conditions": "Homo sapiens"}, "L1210": {"tested_on": "L1210", "type": "functional, cell-based", "conditions": "Mus musculus"}, "Vero [19]": {"tested_on": "Vero", "test": "Tested for inhibitory effect on RNA virus SFV in Vero cell line", "type": "functional, cell-based", "conditions": "Chlorocebus sabaeus"}, "MDCK [20]": {"tested_on": "MDCK", "test": "Tested for inhibitory effect on RNA virus Influenza B in MDCK cell line", "type": "functional, cell-based", "conditions": "Canis lupus familiaris"}, "Vero [21]": {"tested_on": "Vero", "test": "Tested for inhibitory effect on RNA virus TV in Vero cell line", "type": "functional, cell-based", "conditions": "Chlorocebus sabaeus"}, "FM3A": {"tested_on": "FM3A", "type": "functional, cell-based", "conditions": "Mus musculus"}, "Vero [22]": {"tested_on": "Vero", "test": "Tested for inhibitory effect on RNA virus Reo-1 in Vero cell line", "type": "functional, cell-based", "conditions": "Chlorocebus sabaeus"}, "Vero [23]": {"tested_on": "Vero", "type": "functional, cell-based", "conditions": "Chlorocebus sabaeus"}, "ESM [24]": {"tested_on": "ESM", "test": "Tested for inhibitory effect on DNA virus VV in ESM cell line", "type": "functional, cell-based", "conditions": "Homo sapiens"}, "ESM [25]": {"tested_on": "ESM", "test": "Tested for inhibitory effect on DNA virus TK-HSV-1 (B2006) in ESM cell line", "type": "functional, cell-based", "conditions": "Homo sapiens"}, "Vero [26]": {"tested_on": "Vero", "test": "Tested for inhibitory effect on RNA virus SV in Vero cell line", "type": "functional, cell-based", "conditions": "Chlorocebus sabaeus"}, "HEL [27]": {"tested_on": "HEL", "test": "Tested for inhibitory effect on DNA virus TK-VZV (07/1) in HEL cell line", "type": "functional, cell-based", "conditions": "Homo sapiens"}, "HEL [28]": {"tested_on": "HEL", "test": "Tested for inhibitory effect on DNA virus VZV (Oka) in HEL cell line", "type": "functional, cell-based", "conditions": "Homo sapiens"}, "Vero [29]": {"tested_on": "Vero", "type": "functional, cell-based", "conditions": "Chlorocebus sabaeus", "remark": "listed apart in the source"}, "HEL [30]": {"tested_on": "HEL", "test": "Tested for inhibitory effect on DNA virus TK-VZV (YS/R) in HEL cell line", "type": "functional, cell-based", "conditions": "Homo sapiens"}, "HEL [31]": {"tested_on": "HEL", "test": "Tested for inhibitory effect on DNA virus VZV (YS) in HEL cell line", "type": "functional, cell-based", "conditions": "Homo sapiens"}, "HEL [32]": {"tested_on": "HEL", "test": "Tested for inhibitory effect on DNA virus CMV (AD-169) in HEL cell line", "type": "functional, cell-based", "conditions": "Homo sapiens"}}, "data": [{"smiles": "Nc1nc2c(ncn2COCCO)c(=O)[nH]1", "note": "[ACYCLOVIR]", "values": [{"measurement": "IC50", "setting": "MT4 [1]", "value": "> 100", "unit": "µg/mL"}, {"measurement": "IC50", "setting": "HEL [2]", "value": "> 200", "unit": "µg/mL"}, {"measurement": "IC50", "setting": "HEL [3]", "value": 22, "unit": "µg/mL"}]}, {"smiles": "NC(=O)c1ncn([C@@H]2O[C@H](CO)[C@@H](O)[C@H]2O)n1", "note": "[RIBAVIRIN]", "values": [{"measurement": "IC50", "setting": "MDCK [4]", "value": 4, "unit": "µg/mL"}, {"measurement": "IC50", "setting": "CCRF-CEM", "value": 19, "unit": "µg/mL"}, {"measurement": "IC50", "setting": "ESM [5]", "value": "> 300", "unit": "µg/mL"}, {"measurement": "IC50", "setting": "HeLa [6]", "value": 70, "unit": "µg/mL"}, {"measurement": "IC50", "setting": "ESM [7]", "value": "≥ 400", "unit": "µg/mL"}, {"measurement": "IC50", "setting": "MT4 [1]", "value": 6.5, "unit": "µg/mL"}, {"measurement": "IC50", "setting": "Vero [8]", "value": 20, "unit": "µg/mL"}, {"measurement": "IC50", "setting": "HeLa [9]", "value": 4, "unit": "µg/mL"}, {"measurement": "IC50", "setting": "HeLa [10]", "value": 14, "unit": "µg/mL"}, {"measurement": "IC50", "setting": "Vero [11]", "value": 5.2, "unit": "µg/mL"}, {"measurement": "IC50", "setting": "MT4 [12]", "value": "> 5", "unit": "µg/mL"}, {"measurement": "IC50", "setting": "Vero [13]", "value": 20, "unit": "µg/mL"}, {"measurement": "IC50", "setting": "MDCK [14]", "value": "> 200", "unit": "µg/mL"}, {"measurement": "IC50", "setting": "ESM [15]", "value": 110, "unit": "µg/mL"}, {"measurement": "IC50", "setting": "MT4 [16]", "value": "> 5", "unit": "µg/mL"}, {"measurement": "IC50", "setting": "ESM [17]", "value": "≥ 350", "unit": "µg/mL"}, {"measurement": "IC50", "setting": "HeLa [18]", "value": "≥ 400", "unit": "µg/mL"}, {"measurement": "IC50", "setting": "L1210", "value": 7.1, "unit": "µg/mL"}, {"measurement": "IC50", "setting": "Vero [19]", "value": "≥ 235", "unit": "µg/mL"}, {"measurement": "IC50", "setting": "MDCK [20]", "value": 4, "unit": "µg/mL"}, {"measurement": "IC50", "setting": "Vero [21]", "value": 6.4, "unit": "µg/mL"}, {"measurement": "IC50", "setting": "FM3A", "value": 3.9, "unit": "µg/mL"}, {"measurement": "IC50", "setting": "Vero [22]", "value": 160, "unit": "µg/mL"}, {"measurement": "IC50", "setting": "Vero [23]", "value": "> 400", "unit": "µg/mL"}, {"measurement": "IC50", "setting": "ESM [24]", "value": 45, "unit": "µg/mL"}, {"measurement": "IC50", "setting": "ESM [25]", "value": "> 135", "unit": "µg/mL"}, {"measurement": "IC50", "setting": "Vero [26]", "value": "≥ 250", "unit": "µg/mL"}]}, {"smiles": "C[C@H]1OC(c2n[nH]c(C(N)=O)c2O)[C@H](O)[C@@H]1O", "note": "(some centres undefined)", "values": [{"measurement": "IC50", "setting": "MDCK [4]", "value": 20, "unit": "µg/mL"}, {"measurement": "IC50", "setting": "CCRF-CEM", "value": "> 49", "unit": "µg/mL"}, {"measurement": "IC50", "setting": "ESM [5]", "value": "> 300", "unit": "µg/mL"}, {"measurement": "IC50", "setting": "HeLa [6]", "value": 55, "unit": "µg/mL"}, {"measurement": "IC50", "setting": "ESM [7]", "value": "≥ 400", "unit": "µg/mL"}, {"measurement": "IC50", "setting": "MT4 [1]", "value": 8.8, "unit": "µg/mL"}, {"measurement": "IC50", "setting": "Vero [8]", "value": 70, "unit": "µg/mL"}, {"measurement": "IC50", "setting": "HeLa [9]", "value": 4, "unit": "µg/mL"}, {"measurement": "IC50", "setting": "HeLa [10]", "value": 14, "unit": "µg/mL"}, {"measurement": "IC50", "setting": "Vero [11]", "value": "> 40", "unit": "µg/mL"}, {"measurement": "IC50", "setting": "HEL [27]", "value": "> 40", "unit": "µg/mL"}, {"measurement": "IC50", "setting": "MT4 [12]", "value": "> 4", "unit": "µg/mL"}, {"measurement": "IC50", "setting": "Vero [13]", "value": "> 200", "unit": "µg/mL"}, {"measurement": "IC50", "setting": "MDCK [14]", "value": 100, "unit": "µg/mL"}, {"measurement": "IC50", "setting": "ESM [15]", "value": 70, "unit": "µg/mL"}, {"measurement": "IC50", "setting": "MT4 [16]", "value": "> 4", "unit": "µg/mL"}, {"measurement": "IC50", "setting": "HEL [28]", "value": 40, "unit": "µg/mL"}, {"measurement": "IC50", "setting": "ESM [17]", "value": "≥ 350", "unit": "µg/mL"}, {"measurement": "IC50", "setting": "HeLa [18]", "value": "≥ 170", "unit": "µg/mL"}, {"measurement": "IC50", "setting": "HEL [2]", "value": "> 50", "unit": "µg/mL"}, {"measurement": "IC50", "setting": "Vero [29]", "value": "> 400", "unit": "µg/mL"}, {"measurement": "IC50", "setting": "HEL [30]", "value": "> 40", "unit": "µg/mL"}, {"measurement": "IC50", "setting": "L1210", "value": 37, "unit": "µg/mL"}, {"measurement": "IC50", "setting": "Vero [19]", "value": "> 200", "unit": "µg/mL"}, {"measurement": "IC50", "setting": "MDCK [20]", "value": "> 100", "unit": "µg/mL"}, {"measurement": "IC50", "setting": "HEL [3]", "value": "> 40", "unit": "µg/mL"}, {"measurement": "IC50", "setting": "Vero [21]", "value": "> 40", "unit": "µg/mL"}, {"measurement": "IC50", "setting": "FM3A", "value": 39, "unit": "µg/mL"}, {"measurement": "IC50", "setting": "HEL [31]", "value": 22, "unit": "µg/mL"}, {"measurement": "IC50", "setting": "Vero [22]", "value": "> 175", "unit": "µg/mL"}, {"measurement": "IC50", "setting": "HEL [32]", "value": "> 40", "unit": "µg/mL"}, {"measurement": "IC50", "setting": "ESM [24]", "value": 5.5, "unit": "µg/mL"}, {"measurement": "IC50", "setting": "ESM [25]", "value": 55, "unit": "µg/mL"}, {"measurement": "IC50", "setting": "Vero [26]", "value": "> 200", "unit": "µg/mL"}]}]}
